Test results as given in patent publication US20040053859A1, “Preventive or therapeutic agent for cancer containing cyanidin compound as active ingredient” (priority 2000, published 2004).

Key:
large intestine cancer = assay: carcinostatic effect against PhIP-promoted, DMH-initiated large intestine cancer in rats (macroscopic pathologic examination); type: in vivo, F344/DuCrj male rats; conditions: DMH 20 mg/kg s.c. once a week for 4 weeks, then feed for 32 weeks, group 2 PhIP 200 ppm only, group 3 PhIP 200 ppm + PCC 5%
Excerpt: Using DMH (1,2-dimethylhydradinedihydrochloride, manufactured by Tokyo Kasei Kogyo Co., Ltd., Lot. FIH01-UR) as an initiator of large intestine cancer, the carcinostatic effect of a purple corn pigment (manufactured. by San-Ei gen F.F.I., Inc. Lot. 990519, containing 10.8% of the compound of the formula (III) and 6.5% of the compound of the formula (IV), hereinafter referred to as PCC) was examined against the carcinogenesis promoting effect of PhIP (2-amino-1-methyl-6-phenylimidazo [4,5-b] pyridine (Toronto Research Chemical Inc., Lot. 5-YCX-55-2).
(§1) F344/DuCrj male rats (Charles River Japan Inc.) were used as test animals. The rats were subjected to a subcutaneous administration of DMH of 20 mg/kg once a week, for 4 weeks. They were divided into a group 1 fed with a basic feed (labo MR stock, manufactured by Nihon Nosan Kogyo KK), a group 2 fed with PhIP (200 ppm) only, and a group 3 fed with a mixture of PhIP (200 ppm) and PCC (5%). The rats (20 per group) were allowed to take the feed freely for 32 weeks.
The rats alive at the end of the experiment were fasted and then bled for euthanasia under deep anesthesia. They were dissected together with the dead rat of the group 2 to macroscopically examine tumorigenesis in various organs in the thoracic cavity and the abdominal cavity.
In every rat, tumorigenesis was not observed in other organs than the large intestine (cecum, colon, rectum). The tumor generated in the large intestine was recognized as cancer by the macroscopic pathologic examination.

[1] = survival, clinical manifestation, weight and water intake of rats during feeding of test substances; type: in vivo, F344/DuCrj male rats
Experimental: as §1
With an electronic balance (LC2200, manufactured by Sartorius), the weight of each rat was measured once a week until 14th week after initiation of the experiment, and thereafter measured once every two weeks. The feed intake amount of each rat was also measured once a week until 14th week, and thereafter measured once every other week in the same manner as the weight measurement, except that the feed intake amount for two days was measured.
With an electronic balance (LC2200, manufactured by Sartorius), an intake amount of water for two days was measured once a week until 14th week, and thereafter measured once every other week.

Structure (SMILES): Cn1c(N)nc2ncc(-c3ccccc3)cc21 [PhIP, 2-amino-1-methyl-6-phenylimidazo[4,5-b]pyridine]
- Number of rats having tumor (large intestine cancer; 20 rats per group): 17
- Numbers of tumors (large intestine cancer; 20 rats per group): 48
- Number of tumors/number of rats having tumor (large intestine cancer): 2.82
- water intake amount ([1]; 5th and 6th weeks, group 2 PhIP 200 ppm, group 3 PhIP 200 ppm + PCC 5%, group 1 about 20): about 19 g/animal/day
- survival until the end of the experiment ([1]; 32 weeks feeding after DMH, 20 rats per group): one in the group 2 died during the experiment
- weight of the rats reached during administration of test substances (from about 230 g) ([1]; group 2 PhIP 200 ppm, group 3 PhIP 200 ppm + PCC 5%, group 1 basic feed about 360 g): ~315 g
